From PMC10555500, “Evaluation of the Antiproliferative Properties of CpRu Complexes Containing N-Methylated Triazaphosphaadamantane Derivatives” (Bioinorganic Chemistry and Applications, 2023)

Key:
[1] = tested on: MDA-MB-231 breast cancer cells; assay: MTT cytotoxicity assay, MDA-MB-231 cells; type: cell-based, human; conditions: for IC50: 24 h incubation, MTT, average of at least three experiments (±SD); for Cytotoxicity (in words): MDA-MB-231, MTT, 24 h
Description: The MDA-MB-231 and MCF-7 human breast cancer cells were purchased from ATCC. The MDA-MB-231 and MCF-7 cells were grown in Dulbecco's modified Eagles' medium (DMEM high glucose) (Capricorn Scientific) at 37°C in 5% CO2 supplemented with 10% fetal bovine serum (Capricorn Scientific). HDF cells were purchased from Merck and were grown in the fibroblast growth medium. All cells were adherent in monolayers and, upon confluence, were washed with phosphate buffer saline (PBS) and harvested by digestion with trypsin-EDTA 0.05% (v/v). The cells were suspended and transferred into new, sterile, culture flasks for maintenance or seeded in sterile test microplates for different assays. All cells were manipulated under aseptic conditions in a flow chamber.
The cells were adherent in monolayers and, upon confluence, were harvested by digestion with trypsin. The cytotoxicity of the complexes against the tumour cells was assessed using the colorimetric assay MTT […], which evaluates the metabolic activity of viable cells. This assay measures the conversion of yellow tetrazolium into purple formazan by an active mitochondrial dehydrogenase in living cells. For this purpose, the cells (10–20 × 10^3 in 200 μL of the medium) were seeded into 96-well plates and incubated in a 5% CO2 incubator at 37°C. The cells were settled for 24 h followed by the addition of a dilution series of the complexes in a medium (200 μL). The complexes were first solubilized in 100% DMSO, given a 10 mM stock solution, and then in a medium within the concentration range of 0.1–100 µM. […] After 24 h of incubation, the treatment solutions were removed by aspiration, and MTT solution (200 μL, 0.5 mg·mL^−1 in PBS) was added to each well. After 3 h at 37°C/5% CO2, the solution was removed, and the purple formazan crystals formed inside the cells were dissolved in DMSO (200 μL) by thorough shaking. The cellular viability was evaluated by measuring the absorbance at 570 nm by using a microplate spectrophotometer. The IC50 values were obtained by dose-response curves using the GraphPad Prism software (vs. 5).
The MDA-MB-231 and MCF-7 human breast cancer cells were purchased from ATCC. MDA-MB-231 and MCF-7 cells were grown in Dulbecco’s modified Eagles’s medium (DMEM high glucose) (Capricorn Scientific) at 37 °C in 5% CO2 supplemented with 10% fetal bovine serum (Capricorn Scientific). All cells were adherent in monolayers and, upon confluence, were washed with phosphate buffer saline (PBS) and harvested by digestion with Trypsin-EDTA 0.05% (v/v). The cells were suspended and transferred into new, sterile, culture flasks, for maintenance or seeded in sterile test microplates for different assays. All cells were manipulated under aseptic conditions in a flow chamber.
The cells were adherent in monolayers and, upon confluency, were harvested by digestion with trypsin. The cytotoxicity of the complexes against the tumour cells was assessed using the colorimetric assay MTT […], which evaluate the metabolic activity of viable cells. This assay measures the conversion of the yellow tetrazolium into purple formazan by an active mitochondrial dehydrogenase in living cells. For this purpose, cells (10-20 × 10^3 in 200 μL of medium) were seeded into 96-well plates and incubated in a 5% CO2 incubator at 37 °C. The cells were settled for 24 h followed by the addition of a dilution series of the complexes in medium (200 μL). The complexes were first solubilized in 100% DMSO, given a 10 mM stock solution, and then in medium within the concentration range of 0.1–100 µM. […] After 24 h of incubation, the treatment solutions were removed by aspiration, and MTT solution (200 μL, 0.5 mg·mL^-1 in PBS) was added to each well. After 3 h at 37 °C/5% CO2, the solution was removed, and the purple formazan crystals formed inside the cells were dissolved in DMSO (200 μL) by thorough shaking. […]

[2] = Stability in DMSO-d6 and DMSO-d6/D2O monitored by 31P{1H} NMR; type: physicochemical; conditions: room temperature and 37°C, 48 h, 31P{1H} NMR
Source text: The assessment of the biological properties of the complexes requires their dissolution in a cell culture medium which is mainly constituted by water. When the complex is not hydrosoluble enough, the used protocol contemplates preliminary dissolution in DMSO before the addition to the culture medium. Thus, it is important to determine the stability and behaviour of the complexes in both DMSO and water/DMSO mixtures to check whether different species have been formed when dissolved. Dissolutions in DMSO-d6 and DMSO-d6/D2O of the new complexes 8 and 11 were monitored by ^31P{^1H} NMR over time at room temperature and 37°C. The stability studies of the rest of the complexes (1‐7, 9, 10) were published previously. All experiments were performed by a similar procedure: the complex (0.01 g) was introduced into a 5 mm NMR tube and dissolved in 0.5 mL of degassed solvent (DMSO-d6 and a 1 : 1 mixture of DMSO-d6/D2O). The solution was left at room temperature and monitored by ^31P{^1H} NMR first every 15 minutes, and later in longer periods. Stability was also monitored at incubation cell-based assay temperature (37°C).
All compounds were studied for their stability in 100% DMSO-d6 and DMSO-d6/D2O mixture by using NMR spectroscopy in common aerobic conditions. All experiments were performed by a similar procedure: the complex (0.01 g) was introduced into a 5 mm NMR tube and dissolved in 0.5 mL of degassed solvent (DMSO-d6 and a 1:1 mixture of DMSO-d6/D2O). The solution was left at room temperature and monitored by ^31P{^1H} NMR first every 15 minutes, and later in longer time periods. Stability was also monitored at incubation cell-based assays temperature (37 °C).

Row | Compound | IC50 ([1]; Homo sapiens, MDA-MB-231) [µM] | IC50 [1] [µM] | other results
1 | C[N+]12CN3CP(C1)C[N+](C)(C3)C2 [Compound 3, N,N′-dimethyl-1,3,5-triaza-7-phosphaadamantane] | > 100 | – | –
2 | [Cl][Ru+]([P]12CN3CN(CN(C3)C1)C2)[P](c1ccccc1)(c1ccccc1)c1ccccc1.c1cc[cH-]c1 [Compound 5, [RuClCp(PPh3)(PTA)]] | – | 60 ± 19 | Cytotoxicity (in words) [1]: Moderate cytotoxicity
3 | CN1CN2C[NH+](C)C[P]([Ru+2]([P](c3ccccc3)(c3ccccc3)c3ccccc3)[S](C)(C)=O)(C1)C2.O=S(=O)([O-])C(F)(F)F.O=S(=O)([O-])C(F)(F)F.c1cc[cH-]c1 [Compound 8, [RuCp(DMSO-κS)(HdmoPTA)(PPh3)](CF3SO3)2] | – | 15 ± 2.2 | Stability in DMSO-d6 [2]: stable; Stability in DMSO-d6/D2O (1:1) [2]: stable
4 | [Cl][Ru+]([P]12CN3CN(CN(C3)C1)C2)[P]12CN3CN(CN(C3)C1)C2.c1cc[cH-]c1 [Compound 4, [RuClCp(PTA)2]] | – | > 100 | Cytotoxicity (in words) [1]: noncytotoxic
5 | C1N2CN3CN1CP(C2)C3 [Compound 1, 1,3,5-triaza-7-phosphaadamantane] | > 100 | – | –
6 | C[N+]12CN3CN(CP(C3)C1)C2 [Compound 2, N-methyl-1,3,5-triaza-7-phosphaadamantane] | > 100 | – | –
7 | C[N+]12CN3CN(C1)C[P]([Ru+]([Cl])[P](c1ccccc1)(c1ccccc1)c1ccccc1)(C3)C2.O=S(=O)([O-])C(F)(F)F.c1cc[cH-]c1 [Compound 6, [RuClCp(PPh3)(mPTA)](CF3SO3)] | – | 8.3 ± 1.4 | Fold increase in cytotoxicity with respect to complex 5 ([1]; MDA-MB-231, 24 h): 7 fold
8 | CN1CN2C[NH+](C)C[P]([Ru+]([Cl])[P](c3ccccc3)(c3ccccc3)c3ccccc3)(C1)C2.O=S(=O)([O-])C(F)(F)F.c1cc[cH-]c1 [Compound 7, [RuClCp(HdmoPTA)(PPh3)](CF3SO3)] | – | 2.5 ± 1.1 | Fold increase in antiproliferative activity with respect to complex 6 ([1]; MDA-MB-231, 24 h): 4 fold
